Laboratory results as given in ChEMBL document CHEMBL1944529, “Structure-based design, synthesis and structure-activity relationships of dibenzosuberyl- and benzoate-substituted tropines as ligands for acetylcholine-binding protein” (Bioorg Med Chem Lett, 2012).

Legend:
[1] = target: Acetylcholine-binding protein (Lymnaea stagnalis, UniProt P58154); test: Displacement of [3H]epibatidine from Lymnaea stagnalis acetylcholine binding protein expressed using baculoviral system after 1.5 hrs by scintillation counting
[2] = target: T1, Soluble acetylcholine receptor (Aplysia californica, UniProt Q8WSF8); test: Displacement of [3H]epibatidine from Aplysia californica acetylcholine binding protein expressed using baculoviral system after 1.5 hrs by scintillation counting
T1 sequence (Q8WSF8 whole entry): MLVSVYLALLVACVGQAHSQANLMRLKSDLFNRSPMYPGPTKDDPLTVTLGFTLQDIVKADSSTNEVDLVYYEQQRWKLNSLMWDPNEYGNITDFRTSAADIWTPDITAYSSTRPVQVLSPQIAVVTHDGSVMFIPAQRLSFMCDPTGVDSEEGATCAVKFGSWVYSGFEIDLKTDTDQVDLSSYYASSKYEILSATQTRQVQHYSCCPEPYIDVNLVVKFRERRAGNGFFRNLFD

[3] = target: Neuronal acetylcholine receptor subunit alpha-7 (Homo sapiens, UniProt P36544); test: Displacement of [3H]MLA from nAChR alpha7 receptor in human SH-SY5Y cells by scintillation counting; type: cell-based
[4] = target: Neuronal acetylcholine receptor; alpha4/beta2 (Homo sapiens, UniProt P17787+P43681); test: Displacement of [3H]epibatidine from human nAChR alpha4beta2 receptor expressed in human HEK293T cells by scintillation counting; type: cell-based, HEK-293T
Neuronal acetylcholine receptor; alpha4/beta2, sequence (P17787 whole entry): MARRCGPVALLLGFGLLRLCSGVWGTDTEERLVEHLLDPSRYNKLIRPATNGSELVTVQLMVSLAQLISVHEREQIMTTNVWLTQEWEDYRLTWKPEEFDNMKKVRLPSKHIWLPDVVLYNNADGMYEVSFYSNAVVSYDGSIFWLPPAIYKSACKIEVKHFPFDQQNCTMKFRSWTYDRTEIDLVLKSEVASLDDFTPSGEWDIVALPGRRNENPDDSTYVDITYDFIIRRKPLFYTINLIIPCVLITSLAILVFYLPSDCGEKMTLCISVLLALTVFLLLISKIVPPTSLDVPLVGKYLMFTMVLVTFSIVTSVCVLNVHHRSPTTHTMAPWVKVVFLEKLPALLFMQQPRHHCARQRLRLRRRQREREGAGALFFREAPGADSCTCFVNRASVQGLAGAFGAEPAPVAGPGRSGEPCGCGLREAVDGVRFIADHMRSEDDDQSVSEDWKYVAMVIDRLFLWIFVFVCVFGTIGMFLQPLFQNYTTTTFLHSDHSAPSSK
Neuronal acetylcholine receptor; alpha4/beta2, sequence (P43681 whole entry): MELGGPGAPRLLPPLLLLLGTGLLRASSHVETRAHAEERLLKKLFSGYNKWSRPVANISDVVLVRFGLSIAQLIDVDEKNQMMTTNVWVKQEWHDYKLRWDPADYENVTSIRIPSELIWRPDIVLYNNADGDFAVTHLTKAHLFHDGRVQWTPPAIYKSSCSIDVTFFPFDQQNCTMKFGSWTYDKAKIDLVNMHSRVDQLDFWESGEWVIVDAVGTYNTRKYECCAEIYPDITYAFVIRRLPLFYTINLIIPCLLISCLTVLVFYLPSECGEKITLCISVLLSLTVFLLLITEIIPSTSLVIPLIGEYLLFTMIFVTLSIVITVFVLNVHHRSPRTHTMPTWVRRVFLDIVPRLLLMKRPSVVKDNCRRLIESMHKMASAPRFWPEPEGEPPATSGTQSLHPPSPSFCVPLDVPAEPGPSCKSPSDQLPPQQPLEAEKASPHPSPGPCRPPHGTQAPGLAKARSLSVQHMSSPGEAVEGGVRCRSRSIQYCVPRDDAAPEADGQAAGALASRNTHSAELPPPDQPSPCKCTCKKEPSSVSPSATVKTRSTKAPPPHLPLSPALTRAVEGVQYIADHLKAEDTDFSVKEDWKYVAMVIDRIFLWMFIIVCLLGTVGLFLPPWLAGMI

Neuronal acetylcholine receptor subunit alpha-7, sequence (P36544 whole entry): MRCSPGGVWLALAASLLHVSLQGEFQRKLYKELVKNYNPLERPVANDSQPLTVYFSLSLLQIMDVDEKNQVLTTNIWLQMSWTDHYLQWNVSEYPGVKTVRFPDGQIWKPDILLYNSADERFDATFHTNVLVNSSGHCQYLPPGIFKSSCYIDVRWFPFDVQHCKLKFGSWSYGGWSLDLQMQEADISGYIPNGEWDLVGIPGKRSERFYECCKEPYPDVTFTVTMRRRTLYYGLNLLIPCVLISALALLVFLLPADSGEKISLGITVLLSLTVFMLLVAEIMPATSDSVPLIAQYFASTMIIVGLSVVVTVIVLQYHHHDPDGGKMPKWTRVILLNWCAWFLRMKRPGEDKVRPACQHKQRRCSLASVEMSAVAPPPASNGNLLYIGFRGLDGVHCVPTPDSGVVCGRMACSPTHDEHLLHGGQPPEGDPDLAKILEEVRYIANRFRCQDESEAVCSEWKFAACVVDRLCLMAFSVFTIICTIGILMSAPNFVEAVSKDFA
Acetylcholine-binding protein, sequence (P58154 whole entry): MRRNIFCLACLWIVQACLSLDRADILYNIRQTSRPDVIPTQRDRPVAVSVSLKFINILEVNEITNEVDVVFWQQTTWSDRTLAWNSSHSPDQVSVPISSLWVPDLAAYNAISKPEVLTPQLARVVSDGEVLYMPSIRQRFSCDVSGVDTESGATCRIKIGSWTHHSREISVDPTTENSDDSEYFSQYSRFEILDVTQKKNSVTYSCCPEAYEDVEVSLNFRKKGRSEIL

Structure (SMILES)	Ki [1] [µM]	Ki [2] [µM]	Ki [3] [µM]	Ki [4] [µM]
c1ccc(CN2[C@@H]3CC[C@H]2C[C@@H](OC2c4ccccc4CCc4ccccc42)C3)cc1	0.251	10	–	–
c1ccc2c(c1)CCc1ccccc1C2O[C@H]1C[C@H]2CC[C@@H](C1)N2	1	10	–	–
C[N+]1(C)[C@@H]2CC[C@H]1C[C@@H](OC1c3ccccc3CCc3ccccc31)C2	0.316	1	1	> 31.6
c1ccc(CCN2[C@@H]3CC[C@H]2C[C@@H](OC2c4ccccc4CCc4ccccc42)C3)cc1	0.1	10	12.6	> 31.6
C[N+]1(CCc2ccccc2)[C@@H]2CC[C@H]1C[C@@H](OC1c3ccccc3CCc3ccccc31)C2 (stereo partly drawn)	0.0398	0.631	1.58	> 31.6
O=C(O[C@H]1C[C@H]2CC[C@@H](C1)N2)c1ccccc1	0.794	5.01	3.16	> 31.6
O=C(O[C@@H]1C[C@H]2CC[C@@H](C1)N2)c1ccccc1	7.94	15.8	–	–
CN1[C@@H]2CC[C@H]1C[C@H](OC(=O)c1ccccc1)C2	6.31	15.8	–	–
O=C(O[C@H]1C[C@H]2CC[C@@H](C1)N2CCc1ccccc1)c1ccccc1	0.0794	0.0316	7.94	> 31.6
O=C(O[C@@H]1C[C@H]2CC[C@@H](C1)N2CCc1ccccc1)c1ccccc1	0.398	1	5.01	> 31.6
C[N+]1(CCc2ccccc2)[C@@H]2CC[C@H]1C[C@@H](OC(=O)c1ccccc1)C2 (stereo partly drawn)	0.0316	0.158	6.31	> 31.6
O=C(O[C@H]1C[C@H]2CC[C@@H](C1)N2C[C@@H](O)c1ccccc1)c1ccccc1	1.26	0.794	–	–
O=C(O[C@H]1C[C@H]2CC[C@@H](C1)N2C[C@H](O)c1ccccc1)c1ccccc1	0.794	0.1	–	–
C[N+]1(CC(O)c2ccccc2)[C@@H]2CC[C@H]1C[C@@H](OC(=O)c1ccccc1)C2 (stereo partly drawn)	0.126	2	10	> 31.6
C[N+]1(C[C@H](O)c2ccccc2)[C@@H]2CC[C@H]1C[C@@H](OC(=O)c1ccccc1)C2 (stereo partly drawn)	0.126	0.794	–	–
O=C(O[C@H]1C[C@H]2CC[C@@H](C1)N2CC(O)c1cccc(O)c1)c1ccccc1 (stereo partly drawn)	0.794	0.631	25.1	> 31.6
O=C(O[C@H]1C[C@H]2CC[C@@H](C1)N2CC(O)c1cc(O)cc(O)c1)c1ccccc1 (stereo partly drawn)	0.398	7.94	15.8	> 31.6
O=C(O[C@@H]1C[C@H]2CC[C@@H](C1)N2CC(O)c1cc(O)cc(O)c1)c1ccccc1 (stereo partly drawn)	2	20	12.6	> 31.6
O=C(O[C@H]1C[C@H]2CC[C@@H](C1)N2CCc1cccc(O)c1)c1ccccc1	0.1	0.2	12.6	> 31.6
OC(CN1[C@@H]2CC[C@H]1C[C@@H](OC1c3ccccc3CCc3ccccc31)C2)c1ccccc1 (mixture of isomers)	2	12.6	20	> 31.6
Oc1cccc(C(O)CN2[C@@H]3CC[C@H]2C[C@@H](OC2c4ccccc4CCc4ccccc42)C3)c1 (mixture of isomers)	2	31.6	39.8	> 31.6
O=C(O[C@H]1C[C@H]2CC[C@@H](C1)N2CC(O)c1ccccc1)c1ccccc1 (mixture of isomers)	0.631	0.158	12.6	> 31.6
CN1[C@@H]2CC[C@H]1C[C@@H](OC(=O)c1ccccc1)C2 [BENZOYL TROPINE]	2	3.98	15.8	> 31.6
CN1[C@@H]2CC[C@H]1C[C@@H](OC1c3ccccc3CCc3ccccc31)C2 [DEPTROPINE]	2	6.31	–	–
CN1[C@@H](CC(=O)c2ccccc2)CCC[C@H]1C[C@H](O)c1ccccc1 [LOBELINE]	–	0.00251	7.94	–
CN1CCC[C@H]1c1cccnc1 [NICOTINE]	–	2.51	–	–
